Assay results taken from patent publication US3989730A, “Bone-seeking technetium-99m complex” (priority 1973, dated 1976).
Like-named read-outs stand apart in the source and are kept apart here.

Columns and labels:
[1] = Simultaneous distribution of 99mTc-EHDP and 85Sr in rabbits at 1-24 hours after intravenous injection; assay type: in vivo, adult New Zealand albino rabbits; conditions: for Blood, % Dose in Whole Organ: blood as 7 % of body weight; for Bone(Avg), % dose in whole organ: bone as 10 % of body weight; for Marrow, % Dose in Whole Organ: marrow as 2.2 % of body weight; for Muscle, % Dose in Whole Organ: muscle as 43 % of body weight
Description: Adult New Zealand albino rabbits having an average weight of 3.8 kg were utilized. Strontium-85 was employed as a standard for comparison. […] Each dosage is contained in a volume of 1 ml.
Multiple samples were counted from the tibia, femur, spine and pelvic bones; the total activity in the skeleton was estimated by assuming the whole skeleton consisted of equal proportions by weight of tibia, spine, femur and pelvis and that the skeletal mass was 10% of the body weight. […] The whole liver and both kidneys were weighed and multiple samples from each were counted to measure the total activity in each organ.

[2] = test system: callous of three week-old fractures of tibia; assay: Localization in callous of three week-old tibial fractures (rabbits), compared with strontium-85; assay type: in vivo, albino rabbits
Description: Adult New Zealand albino rabbits having an average weight of 3.8 kg were utilized. Strontium-85 was employed as a standard for comparison. In a typical experiment 20-250 μCi (i.e., containing approximately 1 mg/kg as the free acid of body weight) of 99mTc EHDP were injected intravenously into the rabbits through the marginal ear vein and compared with 10-20 μ Ci 85 Sr chloride administered simutaneously. Each dosage is contained in a volume of 1 ml.
The animals were sacrificed serially from 1 to 24 hours after injection and the activities in major organs were determined by counting multiple samples from each organ in a scintillation well counter (the technetium-99m counts were corrected for the Compton contributions from the strontium-85 activity in the technetium-99m energy window). Multiple samples were counted from the tibia, femur, spine and pelvic bones; the total activity in the skeleton was estimated by assuming the whole skeleton consisted of equal proportions by weight of tibia, spine, femur and pelvis and that the skeletal mass was 10% of the body weight. The red marrow was sampled from the femur and the total marrow was assumed to be 2.2% of the total body weight. Similarly, blood volume was assumed to be 7% and the skeletal muscle 43% of the body weight. The whole liver and both kidneys were weighed and multiple samples from each were counted to measure the total activity in each organ.
In another series of experiments carried out as described above, localization of technetium from its tin-phosphonate complex was determined in the callous of three week-old fractures of tibia in albino rabbits, again in comparison with strontium-85. Comparative radioassay of technetium-99m administered as the pertechnetate was measured in the callous of tibial fractures in rabbits at one and four hours after administration.

[3] = 2 Hrs
[4] = radioactive decay; cited from earlier work

In the case of [85Sr+2].[Cl-].[Cl-] [85Sr, reference compound], the “Bone(Avg), % dose / 1 % body weight” value ([1]; 1 Hr) was 5.60 % dose / 1 % body weight, the “Femur, % dose / 1 % body weight” value ([1]; 1 Hr) was 4.90 % dose / 1 % body weight and the “Kidneys, % Dose in Whole Organ” value ([1]; 1 Hr) was 0.80 % dose. The “Pelvis, % dose / 1 % body weight” value ([1]; 1 Hr) was 7.07 % dose / 1 % body weight, the “Spine, % dose / 1 % body weight” value ([1]; 1 Hr) was 7.03 % dose / 1 % body weight and the “Tibia, % dose / 1 % body weight” value ([1]; 1 Hr) was 3.62 % dose / 1 % body weight. For the same molecule, the “Urine, % Dose” value ([1]; 1 Hr) was 6.96 % dose, the “Blood, % Dose in Whole Organ” value ([1]; 1 Hr) was 11.9 % dose and the “Bone(Avg), % dose in whole organ” value ([1]; 1 Hr) was 56.0 % dose. The “Marrow, % Dose in Whole Organ” value ([1]; 1 Hr) was 0.91 % dose, the “Muscle, % Dose in Whole Organ” value ([1]; 1 Hr) was 13.4 % dose and the “Bone(Avg), % dose / 1 % body weight” value ([1]; 2 Hrs) was 6.44 % dose / 1 % body weight. For the same molecule, the “Femur, % dose / 1 % body weight” value ([1]; 2 Hrs) was 5.74 % dose / 1 % body weight, the “Kidneys, % Dose in Whole Organ” value ([1]; 2 Hrs) was 0.64 % dose and the “Pelvis, % dose / 1 % body weight” value ([1]; 2 Hrs) was 7.70 % dose / 1 % body weight. The “Spine, % dose / 1 % body weight” value ([1]; 2 Hrs) was 7.59 % dose / 1 % body weight, the “Tibia, % dose / 1 % body weight” value ([1]; 2 Hrs) was 4.73 % dose / 1 % body weight and the “Urine, % Dose” value ([1]; 2 Hrs) was 18.0 % dose. The “Blood, % Dose in Whole Organ” value ([1]; 2 Hrs) was 7.08 % dose, the “Bone(Avg), % dose in whole organ” value ([1]; 2 Hrs) was 49.4 % dose and the “Marrow, % Dose in Whole Organ” value ([1]; 2 Hrs) was 0.76 % dose. The “Muscle, % Dose in Whole Organ” value ([1]; 2 Hrs) was 8.8 % dose, the “Bone(Avg), % dose / 1 % body weight” value ([1]; 4 Hrs) was 6.81 % dose / 1 % body weight and the “Femur, % dose / 1 % body weight” value ([1]; 4 Hrs) was 6.17 % dose / 1 % body weight. The “Kidneys, % Dose in Whole Organ” value ([1]; 4 Hrs) was 0.34 % dose, the “Pelvis, % dose / 1 % body weight” value ([1]; 4 Hrs) was 8.02 % dose / 1 % body weight and the “Spine, % dose / 1 % body weight” value ([1]; 4 Hrs) was 7.82 % dose / 1 % body weight. For the same molecule, the “Tibia, % dose / 1 % body weight” value ([1]; 4 Hrs) was 5.13 % dose / 1 % body weight, the “Urine, % Dose” value ([1]; 4 Hrs) was 22.7 % dose and the “Blood, % Dose in Whole Organ” value ([1]; 4 Hrs) was 3.85 % dose. For the same molecule, the “Bone(Avg), % dose in whole organ” value ([1]; 4 Hrs) was 68.1 % dose, the “Marrow, % Dose in Whole Organ” value ([1]; 4 Hrs) was 0.50 % dose and the “Muscle, % Dose in Whole Organ” value ([1]; 4 Hrs) was 6.46 % dose. The “Bone(Avg), % dose / 1 % body weight” value ([1]; 24 Hrs) was 5.21 % dose / 1 % body weight, the “Femur, % dose / 1 % body weight” value ([1]; 24 Hrs) was 4.83 % dose / 1 % body weight and the “Kidneys, % Dose in Whole Organ” value ([1]; 24 Hrs) was 0.03 % dose. The “Marrow, % dose / 1 % body weight” value ([1]; 24 Hrs) was 0.05 % dose / 1 % body weight, the “Pelvis, % dose / 1 % body weight” value ([1]; 24 Hrs) was 5.26 % dose / 1 % body weight and the “Spine, % dose / 1 % body weight” value ([1]; 24 Hrs) was 6.47 % dose / 1 % body weight. The “Tibia, % dose / 1 % body weight” value ([1]; 24 Hrs) was 4.27 % dose / 1 % body weight, the “Blood, % Dose in Whole Organ” value ([1]; 24 Hrs) was 0.29 % dose and the “Bone(Avg), % dose in whole organ” value ([1]; 24 Hrs) was 51.9 % dose. For the same molecule, the “Marrow, % Dose in Whole Organ” value ([1]; 24 Hrs) was 0.10 % dose, the “Muscle, % Dose in Whole Organ” value ([1]; 24 Hrs) was 1.00 % dose and the “Callus, % dose / 1 % body weight” value ([2]; 1 Hr) was 31.2 % dose / 1 % body weight. For the same molecule, the “Callus, % dose / 1 % body weight” value ([2]; 4 Hrs) was 37.7 % dose / 1 % body weight, the “Blood, % Dose in Whole Organ” value ([3]; AEDP 0.01 mg/kg) was 2.99 % Dose and the “Kidneys, % Dose in Whole Organ” value ([3]; AEDP 0.01 mg/kg) was 0.329 % Dose. For the same molecule, the “Liver, % Dose in Whole Organ” value ([3]; AEDP 0.01 mg/kg) was 0.568 % Dose, the “Marrow, % Dose in Whole Organ” value ([3]; AEDP 0.01 mg/kg) was 0.465 % Dose and the “Urine, % Dose” value ([3]; AEDP 0.01 mg/kg) was 20.97 % Dose. The “Blood, % Dose in Whole Organ” value ([3]; AEDP 0.05 mg/kg) was 2.50 % Dose, the “Kidneys, % Dose in Whole Organ” value ([3]; AEDP 0.05 mg/kg) was 0.353 % Dose and the “Liver, % Dose in Whole Organ” value ([3]; AEDP 0.05 mg/kg) was 0.613 % Dose. For the same molecule, the “Marrow, % Dose in Whole Organ” value ([3]; AEDP 0.05 mg/kg) was 0.486 % Dose, the “Urine, % Dose” value ([3]; AEDP 0.05 mg/kg) was 11.95 % Dose and the “Blood, % Dose in Whole Organ” value ([3]; AEDP 0.1 mg/kg) was 2.48 % Dose. The “Kidneys, % Dose in Whole Organ” value ([3]; AEDP 0.1 mg/kg) was 0.324 % Dose, the “Liver, % Dose in Whole Organ” value ([3]; AEDP 0.1 mg/kg) was 0.654 % Dose and the “Marrow, % Dose in Whole Organ” value ([3]; AEDP 0.1 mg/kg) was 0.244 % Dose. For the same molecule, the “Urine, % Dose” value ([3]; AEDP 0.1 mg/kg) was 12.1 % Dose, the “Blood, % Dose in Whole Organ” value ([3]; AEDP 0.5 mg/kg) was 4.36 % Dose and the “Kidneys, % Dose in Whole Organ” value ([3]; AEDP 0.5 mg/kg) was 0.384 % Dose. The “Liver, % Dose in Whole Organ” value ([3]; AEDP 0.5 mg/kg) was 0.720 % Dose, the “Urine, % Dose” value ([3]; AEDP 0.5 mg/kg) was 10.47 % Dose and the “Urine, % Dose” value ([3]; EHDP 0.01 mg/kg) was 23.66 % Dose. The “Urine, % Dose” value ([3]; EHDP 0.05 mg/kg) was 13.4 % Dose, the “Urine, % Dose” value ([3]; EHDP 0.1 mg/kg) was 11.31 % Dose and the “Urine, % Dose” value ([3]; EHDP 0.5 mg/kg) was 19.6 % Dose. For the same molecule, the “Blood, % Dose in Whole Organ” value ([3]; MDP 0.01 mg/kg) was 3.27 % Dose, the “Kidneys, % Dose in Whole Organ” value ([3]; MDP 0.01 mg/kg) was 0.34 % Dose and the “Liver, % Dose in Whole Organ” value ([3]; MDP 0.01 mg/kg) was 0.65 % Dose. The “Marrow, % Dose in Whole Organ” value ([3]; MDP 0.01 mg/kg) was 0.53 % Dose, the “Muscle, % Dose in Whole Organ” value ([3]; MDP 0.01 mg/kg) was 5.69 % Dose and the “One Femur, % Dose in Whole Organ” value ([3]; MDP 0.01 mg/kg) was 3.46 % Dose. For the same molecule, the “Urine, % Dose” value ([3]; MDP 0.01 mg/kg) was 10.3 % Dose, the “Blood, % Dose in Whole Organ” value ([3]; MDP 0.05 mg/kg) was 3.66 % Dose and the “Kidneys, % Dose in Whole Organ” value ([3]; MDP 0.05 mg/kg) was 0.46 % Dose. The “Liver, % Dose in Whole Organ” value ([3]; MDP 0.05 mg/kg) was 0.71 % Dose, the “Marrow, % Dose in Whole Organ” value ([3]; MDP 0.05 mg/kg) was 0.53 % Dose and the “Muscle, % Dose in Whole Organ” value ([3]; MDP 0.05 mg/kg) was 5.89 % Dose. For the same molecule, the “One Femur, % Dose in Whole Organ” value ([3]; MDP 0.05 mg/kg) was 2.53 % Dose, the “Urine, % Dose” value ([3]; MDP 0.05 mg/kg) was 23.16 % Dose and the “Blood, % Dose in Whole Organ” value ([3]; MDP 0.1 mg/kg) was 3.95 % Dose. For the same molecule, the “Kidneys, % Dose in Whole Organ” value ([3]; MDP 0.1 mg/kg) was 0.66 % Dose, the “Liver, % Dose in Whole Organ” value ([3]; MDP 0.1 mg/kg) was 1.05 % Dose and the “Marrow, % Dose in Whole Organ” value ([3]; MDP 0.1 mg/kg) was 0.57 % Dose. For the same molecule, the “Muscle, % Dose in Whole Organ” value ([3]; MDP 0.1 mg/kg) was 9.32 % Dose, the “One Femur, % Dose in Whole Organ” value ([3]; MDP 0.1 mg/kg) was 2.80 % Dose and the “Urine, % Dose” value ([3]; MDP 0.1 mg/kg) was 15.4 % Dose. The “Blood, % Dose in Whole Organ” value ([3]; MDP 0.5 mg/kg) was 3.11 % Dose, the “Kidneys, % Dose in Whole Organ” value ([3]; MDP 0.5 mg/kg) was 0.45 % Dose and the “Liver, % Dose in Whole Organ” value ([3]; MDP 0.5 mg/kg) was 0.69 % Dose. The “Marrow, % Dose in Whole Organ” value ([3]; MDP 0.5 mg/kg) was 0.67 % Dose, the “Muscle, % Dose in Whole Organ” value ([3]; MDP 0.5 mg/kg) was 5.65 % Dose and the “One Femur, % Dose in Whole Organ” value ([3]; MDP 0.5 mg/kg) was 2.96 % Dose. For the same molecule, the “Urine, % Dose” value ([3]; MDP 0.5 mg/kg) was 15.16 % Dose and the half-life of radionuclide [4] was 65 days.
